For assay [1], the target named is T1, glucocorticoid receptor (Homo sapiens, UniProt P04150).
T1 sequence (P04150 1-777): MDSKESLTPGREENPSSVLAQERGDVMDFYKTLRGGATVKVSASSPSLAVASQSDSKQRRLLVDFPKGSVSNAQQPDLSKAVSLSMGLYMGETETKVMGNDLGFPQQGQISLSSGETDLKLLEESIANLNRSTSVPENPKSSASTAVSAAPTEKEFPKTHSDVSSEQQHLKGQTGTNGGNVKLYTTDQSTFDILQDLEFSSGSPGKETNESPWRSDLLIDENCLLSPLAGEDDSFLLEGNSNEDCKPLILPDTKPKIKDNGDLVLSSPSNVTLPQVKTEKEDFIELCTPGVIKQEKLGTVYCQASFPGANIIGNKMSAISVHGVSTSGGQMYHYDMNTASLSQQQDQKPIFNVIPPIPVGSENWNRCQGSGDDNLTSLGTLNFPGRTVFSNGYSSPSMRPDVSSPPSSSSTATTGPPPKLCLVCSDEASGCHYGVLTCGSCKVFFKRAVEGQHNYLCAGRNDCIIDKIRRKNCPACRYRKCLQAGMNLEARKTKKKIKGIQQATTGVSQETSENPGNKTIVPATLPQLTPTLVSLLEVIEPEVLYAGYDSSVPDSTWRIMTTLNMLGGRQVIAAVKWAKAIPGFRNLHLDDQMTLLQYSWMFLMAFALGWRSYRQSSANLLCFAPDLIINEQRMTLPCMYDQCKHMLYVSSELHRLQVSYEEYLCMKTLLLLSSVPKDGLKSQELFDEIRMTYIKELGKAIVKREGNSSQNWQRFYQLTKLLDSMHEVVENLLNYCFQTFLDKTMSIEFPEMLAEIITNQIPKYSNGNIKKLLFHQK
Briefly: Assay for transactivation activity of the glucocorticoid agonists (MMTV-LTR renilla luciferase reporter). The note with it: A549, A549 cells, 6 hour at 37° C., read-out: maximal response relative to Dexamethasone (100%), transactivation. The class given is cell-based. Here is the method: Assay for Transactivation Activity of the Glucocorticoid Agonists
The functional assay based on that described by R. J. H. Austin et al., Eur Resp J. (2002), 20, 1386-1392 measures the ability of compounds to directly transactivate gene expression. A549 cells stably transfected with a reporter gene containing the glucocorticoid responsive region of the mouse mammary tumour virus long terminal repeat (MMTV-LTR) coupled to renilla luciferase were treated with test compounds at appropriate doses for 6 hour at 37° C. The amount of luciferase activity present within the cells is then determined by measuring the light emitted following incubation with a suitable substrate. Dose response curves were constructed from which EC50 values were estimated and from which maximal responses are calculated relative to Dexamethasone (100%).

In assay [2] the target is T1, glucocorticoid receptor. As to the kind of experiment: Assay for transrepression activity of the glucocorticoid agonists (NF-κB/ELAM-sPAP reporter, TNF stimulated). The class given is cell-based. Particulars: A549 cells, NF-κB responsive ELAM promoter-sPAP reporter; compound 1 hour, then TNF 10 ng/ml for 16 hours; read-out: pEC50 transrepression (converted). Here is the method: Assay for Transrepression Activity of the Glucocorticoid Agonists
The functional assay based on that described by K. P. Ray et al., Biochem J. (1997), 328, 707-715 provides a measure of transrepressive activity of a glucocorticoid agonist. A549 cells stably transfected with a reporter gene containing the NF-κB responsive elements from the ELAM gene promoter coupled to sPAP (secreted alkaline phosphatase) are treated with test compounds at appropriate doses for 1 hour at 37° C. The cells are then stimulated with tumour necrosis factor (TNF, 10 ng/ml) for 16 hours, at which time the amount of alkaline phosphatase produced is measured by a standard colourimetric assay. Dose response curves were constructed from which EC50 values were estimated.

Consider `CC[C@H]1CC[C@H](OC(=O)O[C@]2(C(=O)OCC#N)[C@H](C)C[C@H]3[C@@H]4C[C@H](F)C5=CC(=O)C=C[C@]5(C)[C@@]4(F)[C@@H](O)C[C@@]32C)CC1` (relative stereo) [Example 19, Cyanomethyl (6α,11β,16α,17α)-17-({[(trans-4-ethylcyclohexyl)oxy]carbonyl}oxy)-6,9-difluoro-11-hydroxy-16-methyl-3-oxoandrosta-1,4-diene-17-carboxylate], for which the Emax at glucocorticoid receptor [1] was less than 40%.

For the molecule `CC[C@H]1CC[C@@H](OC(=O)O[C@]2(C(=O)OCC#N)[C@H](C)C[C@H]3[C@@H]4C[C@H](F)C5=CC(=O)C=C[C@]5(C)[C@@]4(F)[C@@H](O)C[C@@]32C)CC1` (relative stereo) [Example 20, Cyanomethyl (6α,11β,16α,17α)-17-({[(cis-4-ethylcyclohexyl)oxy]carbonyl}oxy)-6,9-difluoro-11-hydroxy-16-methyl-3-oxoandrosta-1,4-diene-17-carboxylate], at glucocorticoid receptor [1], the Emax was less than 40%.

Take `CC(C)C1CCC(OC(=O)O[C@]2(C(=O)OCC#N)[C@H](C)C[C@H]3[C@@H]4C[C@H](F)C5=CC(=O)C=C[C@]5(C)[C@@]4(F)[C@@H](O)C[C@@]32C)CC1` (single isomer, unassigned) [Example 11B, Cyanomethyl (6α,11β,16α,17α)-6,9-difluoro-11-hydroxy-16-methyl-17-[({[4-(1-methylethyl)cyclohexyl]oxy}carbonyl)oxy]-3-oxoandrosta-1,4-diene-17-carboxylate]: the EC50 on glucocorticoid receptor [2] is less than 0.316 nM.

Consider `C[C@@H]1C[C@H]2[C@@H]3C[C@H](F)C4=CC(=O)C=C[C@]4(C)[C@@]3(F)[C@@H](O)C[C@]2(C)[C@@]1(OC(=O)OC(C)(C)C)C(=O)OCC#N` [Example 1, Cyanomethyl (6α,11β,16α,17α)-17-({[(1,1-dimethylethyl)oxy]carbonyl}oxy)-6,9-difluoro-11-hydroxy-16-methyl-3-oxoandrosta-1,4-diene-17-carboxylate], for which, at glucocorticoid receptor [2], the EC50 is less than 0.1 nM.

In the case of `CCC(C)(C)OC(=O)O[C@]1(C(=O)OCC#N)[C@H](C)C[C@H]2[C@@H]3C[C@H](F)C4=CC(=O)C=C[C@]4(C)[C@@]3(F)[C@@H](O)C[C@@]21C` [Example 2, Cyanomethyl (6α,11β,16α,17α)-17-({[(1,1-dimethylpropyl)oxy]carbonyl}oxy)-6,9-difluoro-11-hydroxy-16-methyl-3-oxoandrosta-1,4-diene-17-carboxylate], on glucocorticoid receptor [2], the EC50 is less than 0.1 nM.

In the case of `CCC(CC)OC(=O)O[C@]1(C(=O)OCC#N)[C@H](C)C[C@H]2[C@@H]3C[C@H](F)C4=CC(=O)C=C[C@]4(C)[C@@]3(F)[C@@H](O)C[C@@]21C` [Example 3, Cyanomethyl (6α,11β,16α,17α)-17-({[(1-ethylpropyl)oxy]carbonyl}oxy)-6,9-difluoro-11-hydroxy-16-methyl-3-oxoandrosta-1,4-diene-17-carboxylate], the EC50 at glucocorticoid receptor [2] was less than 0.316 nM.

Take `CC(C)C(OC(=O)O[C@]1(C(=O)OCC#N)[C@H](C)C[C@H]2[C@@H]3C[C@H](F)C4=CC(=O)C=C[C@]4(C)[C@@]3(F)[C@@H](O)C[C@@]21C)C(C)C` [Example 4, Cyanomethyl (6α,11β,16α,17α)-6,9-difluoro-11-hydroxy-16-methyl-17-[({[2-methyl-1-(1-methylethyl)propyl]oxy}carbonyl)oxy]-3-oxoandrosta-1,4-diene-17-carboxylate]: on glucocorticoid receptor [2], the EC50 is less than 0.316 nM.

Consider `CCC(CC)COC(=O)O[C@]1(C(=O)OCC#N)[C@H](C)C[C@H]2[C@@H]3C[C@H](F)C4=CC(=O)C=C[C@]4(C)[C@@]3(F)[C@@H](O)C[C@@]21C` [Example 5, Cyanomethyl (6α,11β,16α,17α)-17-({[(2-ethylbutyl)oxy]carbonyl}oxy)-6,9-difluoro-11-hydroxy-16-methyl-3-oxoandrosta-1,4-diene-17-carboxylate], for which, on glucocorticoid receptor [1], the Emax was less than 40%. The EC50 on glucocorticoid receptor [2] is less than 0.316 nM.

`C[C@@H]1C[C@H]2[C@@H]3C[C@H](F)C4=CC(=O)C=C[C@]4(C)[C@@]3(F)[C@@H](O)C[C@]2(C)[C@@]1(OC(=O)OCC(C)(C)C)C(=O)OCC#N` [Example 6, Cyanomethyl (6α,11β,16α,17α)-17-({[(2,2-dimethylpropyl)oxy]carbonyl}oxy)-6,9-difluoro-11-hydroxy-16-methyl-3-oxoandrosta-1,4-diene-17-carboxylate]: at glucocorticoid receptor [2], the EC50 was less than 0.316 nM.

For `CCC(OC(=O)O[C@]1(C(=O)OCC#N)[C@H](C)C[C@H]2[C@@H]3C[C@H](F)C4=CC(=O)C=C[C@]4(C)[C@@]3(F)[C@@H](O)C[C@@]21C)C(C)C` (stereo partly drawn) [Example 7, Cyanomethyl (6α,11β,16α,17α)-17-({[(1-ethyl-2-methylpropyl)oxy]carbonyl}oxy)-6,9-difluoro-11-hydroxy-16-methyl-3-oxoandrosta-1,4-diene-17-carboxylate], the Emax on glucocorticoid receptor [1] is less than 40%. The EC50 on glucocorticoid receptor [2] was less than 0.316 nM.

For the molecule `CC(C)C(C)OC(=O)O[C@]1(C(=O)OCC#N)[C@H](C)C[C@H]2[C@@H]3C[C@H](F)C4=CC(=O)C=C[C@]4(C)[C@@]3(F)[C@@H](O)C[C@@]21C` (stereo partly drawn) [Example 8, Cyanomethyl (6α,11β,16α,17α)-17-({[(1,2-dimethylpropyl)oxy]carbonyl}oxy)-6,9-difluoro-11-hydroxy-16-methyl-3-oxoandrosta-1,4-diene-17-carboxylate], the Emax at glucocorticoid receptor [1] is less than 40%. The EC50 on glucocorticoid receptor [2] is less than 0.316 nM.

Turning to `C[C@@H]1C[C@H]2[C@@H]3C[C@H](F)C4=CC(=O)C=C[C@]4(C)[C@@]3(F)[C@@H](O)C[C@]2(C)[C@@]1(OC(=O)OC1CCCC1)C(=O)OCC#N` [Example 9, Cyanomethyl (6α,11β,16α,17α)-17-{[(cyclopentyloxy)carbonyl]oxy}-6,9-difluoro-11-hydroxy-16-methyl-3-oxoandrosta-1,4-diene-17-carboxylate], at glucocorticoid receptor [1], the Emax is less than 40%. Further, the EC50 at glucocorticoid receptor [2] is less than 0.316 nM.

With `CCCC(CCC)OC(=O)O[C@]1(C(=O)OCC#N)[C@H](C)C[C@H]2[C@@H]3C[C@H](F)C4=CC(=O)C=C[C@]4(C)[C@@]3(F)[C@@H](O)C[C@@]21C` [Example 21, Cyanomethyl (6α,11β16α,17α)-6,9-difluoro-11-hydroxy-16-methyl-3-oxo-17-({[(1-propylbutyl)oxy]carbonyl}oxy)androsta-1,4-diene-17-carboxylate], the Emax at glucocorticoid receptor [1] was less than 40%.

Consider `CC1CC2C3CC(F)C4=CC(=O)C=CC4(C)C3(F)C(O)CC2(C)C1(OC(=O)OC1CC2CCC1(C)C2(C)C)C(=O)OCC#N` (stereo not drawn) [Example 22, Cyanomethyl (6α,11β,16α,17α)-6,9-difluoro-11-hydroxy-16-methyl-3-oxo-17-[({[(1RS,2RS,4RS)-1,7,7-trimethylbicyclo[2.2.1]hept-2-yl]oxy}carbonyl)oxy]androsta-1,4-diene-17-carboxylate], for which the Emax on glucocorticoid receptor [1] was less than 40%.

In the case of `CC(OC(=O)O[C@]1(C(=O)OCC#N)[C@H](C)C[C@H]2[C@@H]3C[C@H](F)C4=CC(=O)C=C[C@]4(C)[C@@]3(F)[C@@H](O)C[C@@]21C)C(C)(C)C` (stereo partly drawn) [Example 23, Cyanomethyl (6α,11β,16α,17α)-6,9-difluoro-11-hydroxy-16-methyl-3-oxo-17-({[(1,2,2-trimethylpropyl)oxy]carbonyl}oxy)androsta-1,4-diene-17-carboxylate], the Emax at glucocorticoid receptor [1] was less than 40%.

Consider `CCCC(OC(=O)O[C@]1(C(=O)OCC#N)[C@H](C)C[C@H]2[C@@H]3C[C@H](F)C4=CC(=O)C=C[C@]4(C)[C@@]3(F)[C@@H](O)C[C@@]21C)C(C)C` (stereo partly drawn) [Example 24, Cyanomethyl (6α,11β,16α,17α)-6,9-difluoro-11-hydroxy-16-methyl-17-[({[1-(1-methylethyl)butyl]oxy}carbonyl)oxy]-3-oxoandrosta-1,4-diene-17-carboxylate], for which, on glucocorticoid receptor [1], the Emax was less than 40%.

These data come from patent publication US7579335B2, “Androstane 17α-carbonate derivatives for use in the treatment of allergic and inflammatory conditions” (Glaxo Group Limited, priority 2005, dated 2009).
